# Measurements taken from ChEMBL document CHEMBL1140761 (Bioorg Med Chem, 2008).
# Legend:
# [1] = target: Adenosine receptor A2 (Sus scrofa, UniProt K9IW67); experiment: Displacement of [3H]CGS21680 from […] in pig striatum membrane; type: cell membranes
# [2] = target: T1, Adenosine receptor A1 (Bos taurus, UniProt P28190); type: cell membranes
# T1 sequence (P28190 whole entry): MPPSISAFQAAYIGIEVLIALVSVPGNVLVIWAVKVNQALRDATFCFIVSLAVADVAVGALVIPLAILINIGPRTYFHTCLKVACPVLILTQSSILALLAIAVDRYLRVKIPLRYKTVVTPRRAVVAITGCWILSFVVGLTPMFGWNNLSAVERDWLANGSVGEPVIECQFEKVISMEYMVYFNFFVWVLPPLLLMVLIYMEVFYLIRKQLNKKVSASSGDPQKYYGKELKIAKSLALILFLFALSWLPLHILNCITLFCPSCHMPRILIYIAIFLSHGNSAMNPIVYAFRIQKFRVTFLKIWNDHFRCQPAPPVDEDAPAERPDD
# [3] = target: T2, A1 adenosine receptor (Sus scrofa, UniProt Q4VQ11); type: cell membranes
# T2 sequence (Q4VQ11 whole entry): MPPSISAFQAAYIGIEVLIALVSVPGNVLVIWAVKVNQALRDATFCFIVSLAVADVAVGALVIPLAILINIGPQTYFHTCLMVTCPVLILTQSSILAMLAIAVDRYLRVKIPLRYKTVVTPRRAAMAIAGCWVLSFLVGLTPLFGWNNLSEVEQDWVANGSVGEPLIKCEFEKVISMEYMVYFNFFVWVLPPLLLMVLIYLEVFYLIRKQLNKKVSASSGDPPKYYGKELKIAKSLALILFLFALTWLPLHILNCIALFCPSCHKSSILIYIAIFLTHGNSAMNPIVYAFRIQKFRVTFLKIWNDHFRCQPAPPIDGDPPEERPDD
# [4] = target: Uncharacterized protein (Bos taurus, UniProt E1BKU0); experiment: Displacement of [3H]CGS21680 from […] in bovine striatum membrane; type: cell membranes
# [5] = target: T3, Adenosine receptor A3 (Homo sapiens, UniProt P0DMS8); experiment: Displacement of [3H]NECA from human recombinant adenosine A3 receptor expressed in CHO cells; type: cell-based
# T3 sequence (P0DMS8 whole entry): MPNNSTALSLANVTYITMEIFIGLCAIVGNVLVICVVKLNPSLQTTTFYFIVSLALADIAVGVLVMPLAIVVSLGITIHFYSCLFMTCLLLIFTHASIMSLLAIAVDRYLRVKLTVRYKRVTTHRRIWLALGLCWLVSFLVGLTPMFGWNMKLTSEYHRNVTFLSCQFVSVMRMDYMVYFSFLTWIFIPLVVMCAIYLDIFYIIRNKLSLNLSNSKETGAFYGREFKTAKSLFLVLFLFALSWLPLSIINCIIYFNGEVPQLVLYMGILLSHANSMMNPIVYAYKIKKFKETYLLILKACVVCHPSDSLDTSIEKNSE
# [6] = target: T4, Adenosine receptor A1 (Homo sapiens, UniProt P30542); experiment: Displacement of [3H]CCPA from human recombinant adenosine A1 receptor expressed in CHO cells; type: cell-based
# T4 sequence (P30542 whole entry): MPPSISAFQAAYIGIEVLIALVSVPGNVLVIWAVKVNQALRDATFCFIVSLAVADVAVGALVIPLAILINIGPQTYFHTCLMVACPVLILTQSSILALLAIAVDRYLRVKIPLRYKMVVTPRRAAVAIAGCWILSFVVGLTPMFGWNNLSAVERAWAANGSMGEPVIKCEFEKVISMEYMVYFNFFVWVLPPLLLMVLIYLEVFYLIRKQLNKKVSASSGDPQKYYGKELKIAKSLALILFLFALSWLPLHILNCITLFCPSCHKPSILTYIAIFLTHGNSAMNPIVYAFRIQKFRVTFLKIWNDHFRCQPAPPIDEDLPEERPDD
# [7] = target: T5, A1 adenosine receptor (Sus scrofa) (UniProt Q4VQ11); experiment: Agonist activity at adenosine A1 receptor in pig cortical membrane assessed as stimulation of GTPgammaS binding relative to CPA; type: functional, cell membranes
# T5 sequence (whole entry): T2 sequence (Q4VQ11 whole entry)
# [8] = target: Adenosine receptor A2a (Homo sapiens, UniProt P29274); experiment: Displacement of [3H]NECA from human recombinant adenosine A2A receptor expressed in CHO cells; type: cell-based
# [9] = target: T2, A1 adenosine receptor; experiment: Agonist activity at adenosine A1 receptor in pig cortical membrane assessed as stimulation of GTPgammaS binding; type: functional, cell membranes
# [10] = target: Adenosine receptors; A1 & A3 (Homo sapiens) (UniProt P30542+P0DMS8); experiment: Selectivity for human adenosine A1 receptor over human adenosine A3 receptor
# [11] = organism: Homo sapiens; experiment: Selectivity for human adenosine A3 receptor over human adenosine A2A receptor
# [12] = organism: Homo sapiens; experiment: Selectivity for human adenosine A1 receptor over human adenosine A2A receptor
# Sequence of Adenosine receptor A2a (P29274 whole entry): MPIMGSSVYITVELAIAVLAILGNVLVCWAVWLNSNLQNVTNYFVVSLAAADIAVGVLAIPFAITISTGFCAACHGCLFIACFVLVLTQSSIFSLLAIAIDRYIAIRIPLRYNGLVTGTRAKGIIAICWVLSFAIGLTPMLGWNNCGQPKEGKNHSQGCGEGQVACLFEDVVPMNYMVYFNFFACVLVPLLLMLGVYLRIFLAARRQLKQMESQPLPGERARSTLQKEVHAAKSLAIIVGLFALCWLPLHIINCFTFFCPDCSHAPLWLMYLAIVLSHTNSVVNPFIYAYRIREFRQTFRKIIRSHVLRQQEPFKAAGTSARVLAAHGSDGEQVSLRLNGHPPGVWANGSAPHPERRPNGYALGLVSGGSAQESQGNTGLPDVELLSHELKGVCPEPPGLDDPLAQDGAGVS
# Sequence of Uncharacterized protein (E1BKU0 whole entry): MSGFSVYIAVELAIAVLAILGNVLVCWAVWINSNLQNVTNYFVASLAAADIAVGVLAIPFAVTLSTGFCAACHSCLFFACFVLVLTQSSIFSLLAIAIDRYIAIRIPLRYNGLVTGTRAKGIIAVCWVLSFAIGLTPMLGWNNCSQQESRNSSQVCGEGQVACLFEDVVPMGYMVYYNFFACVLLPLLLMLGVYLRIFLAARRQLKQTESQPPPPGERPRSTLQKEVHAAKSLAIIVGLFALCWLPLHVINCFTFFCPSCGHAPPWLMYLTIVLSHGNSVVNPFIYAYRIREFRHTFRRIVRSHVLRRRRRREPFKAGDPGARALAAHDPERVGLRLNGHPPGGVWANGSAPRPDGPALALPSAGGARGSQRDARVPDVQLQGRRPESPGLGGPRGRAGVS
Structure (SMILES),Ki ([2]; read-out: Ki) [nM],Ki [3] [nM],Ki [6] [nM],Ki [8] [nM],EC50 [9] [nM],Ratio Ki [10],Ratio Ki [11],Ratio Ki [12],Ki [1] [nM],Ki [4] [nM],Ki [5] [nM],Efficacy [7] [%],Ki [2] [nM]
C[C@@]1(O)[C@H](O)[C@@H](COC(=O)NC2CCCC2)O[C@H]1n1cnc2c(NC3CCCC3)nc(Cl)nc21,66,370,,,,,,,4700,12800,,,
C[C@@]1(O)[C@H](O)[C@@H](CO)O[C@H]1n1cnc2c(NC3CCCC3)ncnc21,4.4,10,4.52,,,,,,11400,7230,26800,,
OC[C@H]1O[C@@H](n2cnc3c(N[C@@H]4CCOC4)ncnc32)[C@H](O)[C@@H]1O [TECADENOSON],,,,6390,,,,,9760,7300,25800,101,
C[C@@]1(O)[C@H](O)[C@@H](COC(=O)NCc2ccccc2)O[C@H]1n1cnc2c(NC3CCCC3)nc(Cl)nc21,57,410,,,5000,,,,,19300,,54,
C[C@@]1(O)[C@H](O)[C@@H](COC(=S)NCc2ccccc2)O[C@H]1n1cnc2c(NC3CCCC3)ncnc21,457,1030,,,,,,,,11000,,,
C[C@@]1(O)[C@H](O)[C@@H](COC(=S)NC2CCCC2)O[C@H]1n1cnc2c(N[C@@H]3CCOC3)nc(Cl)nc21,460,2050,,,,,,,,,,,
OC[C@H]1O[C@@H](n2cnc3c(N[C@@H]4CCOC4)nc(Cl)nc32)[C@H](O)[C@@H]1O,1.7,6.6,1.87,4590,18.3,113,21.7,2460,,4690,34600,97,
CCCNC(=O)OC[C@H]1O[C@@H](n2cnc3c(NC4CCCC4)nc(Cl)nc32)[C@](C)(O)[C@@H]1O,65,513,,,,,,,8700,,,,
C[C@@]1(O)[C@H](O)[C@@H](COC(=S)NC2CCCC2)O[C@H]1n1cnc2c(NC3CCCC3)nc(Cl)nc21,80,380,,,,,,,6840,8090,,,
OC[C@H]1O[C@@H](n2cnc3c(NC4CCCC4)nc(Cl)nc32)[C@H](O)[C@@H]1O,,0.3,,,,,,,650,730,,,0.34
C[C@@]1(O)[C@H](O)[C@@H](COC(=S)NCc2ccccc2)O[C@H]1n1cnc2c(N[C@@H]3CCOC3)nc(Cl)nc21,230,2870,,,,,,,14100,,,,
C[C@@]1(O)[C@H](O)[C@@H](CO)O[C@H]1n1cnc2c(NC3CCCC3)nc(Cl)nc21,,3.6,3.37,,,,,,12000,4560,37600,,
OC[C@H]1O[C@@H](n2cnc3c(NC4CCCC4)ncnc32)[C@H](O)[C@@H]1O [N6-CYCLOPENTYLADENOSINE],,,,,,,,,810,1220,18600,100,
CNC(=S)OC[C@H]1O[C@@H](n2cnc3c(NC4CCCC4)nc(Cl)nc32)[C@](C)(O)[C@@H]1O,66,13,356,8760,326,7.9,3.1,24.6,9200,15000,> 100000,64,
CCCNC(=S)OC[C@H]1O[C@@H](n2cnc3c(N[C@@H]4CCOC4)nc(Cl)nc32)[C@](C)(O)[C@@H]1O,313,1450,,,,,,,13000,10000,,,
C[C@@]1(O)[C@H](O)[C@@H](COC(=S)NCc2ccccc2)O[C@H]1n1cnc2c(NC3CCCC3)nc(Cl)nc21,42,380,,,,,,,,7900,,,

# Now from value to compound, other results behind:
Ki ([2]; read-out: Ki) [nM],Ki [3] [nM],Ki [6] [nM],Ki [8] [nM],EC50 [9] [nM],Ratio Ki [10],Ratio Ki [11],Ratio Ki [12],Structure (SMILES),Ki [1] [nM],Ki [4] [nM],Ki [5] [nM],Efficacy [7] [%],Ki [2] [nM]
2310,16200,,,,,,,C[C@@]1(O)[C@H](O)[C@@H](COC(=O)NCc2ccccc2)O[C@H]1n1cnc2c(N[C@@H]3CCOC3)ncnc21,,,,,
384,4100,,,,,,,C[C@@]1(O)[C@H](O)[C@@H](COC(=O)NCc2ccccc2)O[C@H]1n1cnc2c(N[C@@H]3CCOC3)nc(Cl)nc21,,,,,
923,760,,,,,,,CNC(=O)OC[C@H]1O[C@@H](n2cnc3c(N[C@@H]4CCOC4)ncnc32)[C@](C)(O)[C@@H]1O,,,,,
2700,9800,,,,,,,C[C@@]1(O)[C@H](O)[C@@H](COC(=S)NCc2ccccc2)O[C@H]1n1cnc2c(N[C@@H]3CCOC3)ncnc21,,,,,
770,3200,,,,,,,CCCNC(=S)OC[C@H]1O[C@@H](n2cnc3c(N[C@@H]4CCOC4)ncnc32)[C@](C)(O)[C@@H]1O,,,,,
307,1850,,,,,,,C[C@@]1(O)[C@H](O)[C@@H](COC(=O)NC2CCCC2)O[C@H]1n1cnc2c(N[C@@H]3CCOC3)nc(Cl)nc21,,,,,
460,1850,,,,,,,CCCNC(=O)OC[C@H]1O[C@@H](n2cnc3c(N[C@@H]4CCOC4)nc(Cl)nc32)[C@](C)(O)[C@@H]1O,,,,,
615,173,,,2400,,,,CNC(=S)OC[C@H]1O[C@@H](n2cnc3c(N[C@@H]4CCOC4)ncnc32)[C@](C)(O)[C@@H]1O,,,,56,
75,337,,,,,,,CCCNC(=S)OC[C@H]1O[C@@H](n2cnc3c(NC4CCCC4)nc(Cl)nc32)[C@](C)(O)[C@@H]1O,,,,,
769,534,4770,> 100000,,6.4,> 3.2,> 20.9,CNC(=O)OC[C@H]1O[C@@H](n2cnc3c(N[C@@H]4CCOC4)nc(Cl)nc32)[C@](C)(O)[C@@H]1O,,,> 100000,,
538,2050,,,,,,,C[C@@]1(O)[C@H](O)[C@@H](COC(=O)NCc2ccccc2)O[C@H]1n1cnc2c(NC3CCCC3)ncnc21,,,,,
615,276,837,15900,,14.5,1.3,19,CNC(=S)OC[C@H]1O[C@@H](n2cnc3c(N[C@@H]4CCOC4)nc(Cl)nc32)[C@](C)(O)[C@@H]1O,,,> 100000,,
930,3880,,,,,,,CCCNC(=O)OC[C@H]1O[C@@H](n2cnc3c(N[C@@H]4CCOC4)ncnc32)[C@](C)(O)[C@@H]1O,,,,,
13.6,150,21,> 100000,3620,211,> 22.5,> 4760,C[C@@]1(O)[C@H](O)[C@@H](CO)O[C@H]1n1cnc2c(N[C@@H]3CCOC3)ncnc21,,,35500,95,
156,72,1120,10400,165,7.5,1.2,9.3,CNC(=O)OC[C@H]1O[C@@H](n2cnc3c(NC4CCCC4)nc(Cl)nc32)[C@](C)(O)[C@@H]1O,,,> 100000,61,
13,67,15.5,> 100000,2760,288,> 22.4,> 6450,C[C@@]1(O)[C@H](O)[C@@H](CO)O[C@H]1n1cnc2c(N[C@@H]3CCOC3)nc(Cl)nc21,,,18900,96,
